Measured values from patent US8968703B2, “13C-MR detection using hyperpolarised 13C-fructose” (GE Healthcare Limited, priority 2009, dated 2015).

Tests used:
[1] = 3T T1 studies of hyperpolarized [2-13C]-fructose in solution; format: physicochemical; conditions: for T1 sec (3T): C2 fructose carbon, solution spectra, monoexponential fit
Procedure: T1 studies were performed using a 3T GE Signa™ scanner (GE Healthcare. Waukesha, Wis.) equipped with the MNS (multinuclear spectroscopy) hardware package. Solution spectra were acquired using a 5° non localised pulse, TR=3 s and fit to a monoexponential. The RF coil used in these experiments was a dual-tuned ^1H-^13C coil with a quadrature ^13C channel and linear ^1H channel construction based on an earlier design and also used in ^13C-pyruvate mouse imaging studies. For animal studies, T2-weighted fast spin echo images were acquired prior to MRSI studies to denote anatomy and place voxels on the region of interest. In vivo MRSI studies were carried out using a compressed sensing double spin 3D MRSI acquisition scheme as previously published by Hu S et al. (2008) Compressed sensing for resolution enhancement of hyperpolarized 13C flyback 3D-MRSI. J Magn Reson 192, 258-264, with a TE=140 ms. TR=215 ms, FOV=8 cm×8 cm, and 16×8 resolution. 500 μl of 80 mM [2-^13C]-fructose was injected similar to described by Albers M J et al. (2008) Hyperpolarized 13C lactate, pyruvate and alanine: noninvasice biomarkers for prostate cancer detection and grading. Cancer Res. 68, 8607-8615, for [1-^13C] pyruvate in a transgenic model of prostate cancer (TRAMP). These injections were compared to the standard [1-^13C]-pyruvate injection for the same voxel in a tumor region of interest.

[2] = 11.7T NMR studies of hyperpolarized [2-13C]-fructose (T1, percent polarization); format: physicochemical; conditions: for T1 sec (11.7T): C2 fructose carbon, mono-exponential fit of hyperpolarized signal decay; for % pol (corrected): percent polarization corrected for transfer time using T1 decay
Procedure: A 4.0M solution of 2-[^13C]-fructose (Isotec, Miamisburg, Ohio) in water containing 15 mM OX063 trityl radical (Oxford Instruments) was hyperpolarized on a Hypersense instrument (Oxford Instruments) as described by Ardenkjaer-Larsen et al (2003) Increase in signal-to-noise ratio of >10,000 times in liquid-state NMR. Proc. Natl. Acad. Sci. U.S.A. 100, 10158-10163. The frozen sample was dissolved in 1× phosphate buffered saline (PBS), with a resultant pH of 7.6, and transferred immediately to a 10 mm NMR tube.
NMR studies were performed on an 11.7T Varian INOVA spectrometer (125 MHz ^13C, Varian Instruments) using a 10 mm ^15N/[…]/^13C triple-tuned direct detect probe. Initially, a thermal spectrum was acquired for a natural abundance fructose sample in 1×PBS buffer at 37° C. (nt=9000, sw=30000, np=30000, TR=3.5 s, acq time=0.5 s) using an Ernst angle pulse (45 degrees). […] The C2 carbon resonances correspond to the isomeric distribution of the two ring forms (pyranose and furanose forms) of the fructose molecule.
For the acquisition of hyperpolarized ^13C spectra […] pulse hyperpolarized ^13C NMR spectra (1 average, spectral window=30000 Hz, number of points=30000, TR=3.5 s, acq time=0.5 s, total acq time=2 min 55 s) were acquired using a 5° pulse and proton decoupled using a waltz-16 decoupling scheme. Hyperpolarized studies were followed by acquisition of thermal data using nearly identical parameters, using a 90° tip angle and a repeat time of roughly four T1's (TR=76 s, nt=64). T1's were determined by performing a mono-exponential fit to the signal decay curve of the hyperpolarized compounds. Signal enhancement percent polarizations were calculated by comparing the hyperpolarized and thermal data sets and accounting for differences in tip angle and transients obtained. Solid state polarizations were calculated by correcting the enhancement for the transfer time from the polarizer using the T1 decay.

[3] = as above; format: physicochemical; conditions: pH ranges 5.9-7.8
hexokinase = test: NMR study of enzymatic conversion of hyperpolarized fructose to fructose-6-phosphate; format: biochemical; conditions: 400 U hexokinase
Procedure: For NMR studies of the enzymatic conversion of Fructose to fructose-6-phosphate, hyperpolarized [2-^13C]-fructose was reacted with 400 U of hexokinase (Sigma Aldrich) in the presence of 15 mM ATP, 50 mM TRIS and 13 mM MgCl2. The labelling and mechanism for transport and metabolism is shown below (FIG. 1), though in this enzymatic study the transport element has been removed and the enzyme activity was independently measured. Peaks corresponding to fructose-6-phosphate were identified using a natural abundance carbon spectrum, using a similar set of experimental parameters.

T1 sec (3T) [1] [s]	T1 sec (11.7T) [2] [s]	% pol (corrected) [2] [%]	SMILES	T1 dependence on pH [3]	Relaxation times (T1) ([1]; at 3T) [s]	Time to conversion to fructose-6-phosphate after addition to hexokinase (hexokinase; 15 mM ATP, 50 mM TRIS, 13 mM MgCl2) [s]	Conversion of fructose to fructose-6-phosphate in thermal spectrum (hexokinase; thermal spectrum acquired over 85 minutes post DNP)	Relaxation times (T1) ([2]; at 11.7 T) [s]	Percent polarization, average over isomers ([2]; averages for the isomers of fructose) [%]	Isomeric ratio of fructose pyranose to furanose in solution ([2]; in solution)
13.4 ± 0.4	15.5 ± 0.5	11.8 ± 2.0	OC[C@H]1O[C@@](O)(CO)[C@@H](O)[C@@H]1O [A-fructofuranose]							
			O=[13C](CO)[C@@H](O)[C@H](O)[C@H](O)CO [fructose, [2-^13C]-fructose]	no T1 dependence on pH	13 to 14	≤ 5	fully converted	15 to 16	~12	approximately 77/23
13.4 ± 2.5	15.8 ± 0.5	11.6 ± 2.5	OC[C@H]1O[C@](O)(CO)[C@@H](O)[C@@H]1O [β-fructofuranose]							
14.5 ± 0.3	16.3 ± 0.5	12.0 ± 2.2	OC[C@@]1(O)OC[C@@H](O)[C@@H](O)[C@@H]1O [β-fructopyranose]							
